Assay results reported in the supplement of paper PMC11208160.

experiment: recombinant barcode read abundance after kanamycin selection (control-corrected) (log10(CPM+1)); higher = more efficient recombination; sequences stand for … in AGTGCAGAGAAAATCGGCCAGTTTTCTCTGCCTGCAGTCCGCATGCCGT…AGATTTATGCAGCGGACTGCCTTTCTCCCAAAGTGATAAACCGGACAGTATCATGGACCGGTTTTCCCGGTAATCCGTATTTGCAAGGTTGGTTTCACT; site = the 11-nt target
Experimental: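 Pooled E. coli target-specificity screen for the IS621 bridge recombinase. Each library plasmid pairs an 11-nt target (CT core) with a bridge RNA whose target-binding loop (9-nt LTG + 4-nt RTG) is reprogrammed; the rest of the 177-nt WT IS621 bridge RNA scaffold is fixed. The plasmid is co-electroporated with a WT donor plasmid; recombinase is induced with 0.1 mM IPTG and recombinants are selected on kanamycin. Recombinant barcodes are sequenced, converted to CPM, averaged over two biological replicates and corrected by the unselected control CPM. Molecule = full bridge RNA written as DNA: LTG = specificity nt 1-9, RTG = reverse complement of specificity nt 8-11, in the WT scaffold.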
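Also: IS621 recombinase and bridge RNA in Escherichia coli cells.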

In order of falling “recombinant barcode read abundance (log10)” value:
1. ACATGGTCTTGGGTTCTAACCTGTTGCGT (site ACATGGTCTAC)  2.92
2. ACCCTGTCTTGGGTTCTAACCTGTTGCCG (site ACCCTGTCTCG)  2.44
3. ACAGGTTCTTGGGTTCTAACCTGTTGCCT (site ACAGGTTCTAG)  2.24
4. ACAGGATCTTGGGTTCTAACCTGTTGCTT (site ACAGGATCTAA)  2.18
5. ACCCAGTCTTGGGTTCTAACCTGTTGCGG (site ACCCAGTCTCC)  2.08
6. ACCCAATCTTGGGTTCTAACCTGTTGCAC (site ACCCAATCTGT)  1.94
7. ACATGTGCTTGGGTTCTAACCTGTTGCCT (site ACATGTGCTAG)  1.66
8. ACCCCGTCTTGGGTTCTAACCTGTTGCCT (site ACCCCGTCTAG)  1.65
9. ACCCAGCCTTGGGTTCTAACCTGTTGCCT (site ACCCAGCCTAG)  1.44
10. ACCAGCCCTTGGGTTCTAACCTGTTGCTG (site ACCAGCCCTCA)  1.38
11. ACCCAGCCTTGGGTTCTAACCTGTTGCCT (site ACCCAGCCTAC)  1.27
12. ACATTGTCTTGGGTTCTAACCTGTTGCGG (site ACATTGTCTCC)  1.1
13. ACCCTTACTTGGGTTCTAACCTGTTGCCT (site ACCCTTACTAG)  1.07
14. ACATACACTTGGGTTCTAACCTGTTGCCT (site ACATACACTAG)  0.991
15. ACCAGTCCTTGGGTTCTAACCTGTTGCTA (site ACCAGTCCTTA)  0.934
16. ACAGTAGCTTGGGTTCTAACCTGTTGCCG (site ACAGTAGCTCG)  0.862
17. ACATGTCCTTGGGTTCTAACCTGTTGCCT (site ACATGTCCTAG)  0.828
18. ACCGAGGCTTGGGTTCTAACCTGTTGCCT (site ACCGAGGCTAG)  0.824
19. ACATCAACTTGGGTTCTAACCTGTTGCCT (site ACATCAACTAG)  0.807
20. ACATTAGCTTGGGTTCTAACCTGTTGCTG (site ACATTAGCTCA)  0.603
21. ACAGGATCTTGGGTTCTAACCTGTTGCTT (site ACAGAATCTAG)  0.55
22. ACCCAGCCTTGGGTTCTAACCTGTTGCCT (site ACCCAGCCTAT)  0.522
23. ACCATACCTTGGGTTCTAACCTGTTGCAT (site ACCATACCTAT)  0.385
24. ACCACGCCTTGGGTTCTAACCTGTTGCCT (site ACCACGCCTAG)  0.342
25. ACATGTCCTTGGGTTCTAACCTGTTGCTT (site ACATGTCCTAA)  0.333
26. ACATACACTTGGGTTCTAACCTGTTGCCT (site ACCTACCCTAG)  0.298
27. ACATGTCCTTGGGTTCTAACCTGTTGCTT (site ACATGTCCTAT)  0.287
28. ACAGGTTCTTGGGTTCTAACCTGTTGCCT (site AGAGGTTCTAG)  0.283
29. ACCAACACTTGGGTTCTAACCTGTTGCTT (site TATTTAGCTCC)  0.259
30. ACATTGTCTTGGGTTCTAACCTGTTGCGG (site ACACTGTCTCC)  0.236
31. ACCGAGACTTGGGTTCTAACCTGTTGCCT (site ACCGAGACTAG)  0.224
32. ACCGCGACTTGGGTTCTAACCTGTTGCCT (site ACCGGGACTAG)  0.218
33. ACCGAGGCTTGGGTTCTAACCTGTTGCCT (site AACGACGCTAG)  0.193
34. ACAGTAGCTTGGGTTCTAACCTGTTGCCG (site ACAGTAGCTCC)  0.189
35. ACATTAGCTTGGGTTCTAACCTGTTGCTG (site ACAATAGCTCA)  0.182
36. ACATTAGCTTGGGTTCTAACCTGTTGCTG (site ACAGTAGCTCA)  0.18
37. ACCCAGTCTTGGGTTCTAACCTGTTGCGG (site GTAAGTGCTAT)  0.151
38. ACCCAGCCTTGGGTTCTAACCTGTTGCCT (site ACCCAGCCTAA)  0.146
39. ACATCTACTTGGGTTCTAACCTGTTGCTA (site ACATCTACTTA)  0.145
40. ACCCTTACTTGGGTTCTAACCTGTTGCCT (site ATCCTTACTAG)  0.142
41. ACATGTCCTTGGGTTCTAACCTGTTGCTT (site ACATGTCCTAG)  0.136
42. ACATTGTCTTGGGTTCTAACCTGTTGCGG (site ACAATGTCTCC)  0.13
43. ACCATACCTTGGGTTCTAACCTGTTGCAT (site TAGGATTCTGC)  0.124
44. ACCGCGACTTGGGTTCTAACCTGTTGCCT (site ACCGTGACTAG)  0.121
45. ACATGGTCTTGGGTTCTAACCTGTTGCGT (site ACTGGGTCTAC)  0.115
46. ACCAACACTTGGGTTCTAACCTGTTGCTT (site ACCAACACTAA)  0.115
47. ACCGAGACTTGGGTTCTAACCTGTTGCCT (site ACCGCGACTAG)  0.113
48. ACCGCTTCTTGGGTTCTAACCTGTTGCCT (site AACGCTTCTAG)  0.096
49. ACATCAACTTGGGTTCTAACCTGTTGCCT (site ACGTCAACTAG)  0.0953
50. ACATCAACTTGGGTTCTAACCTGTTGCCT (site ACTTCAACTAG)  0.0926
51. ACCGCGACTTGGGTTCTAACCTGTTGCCT (site ACCGCGACTAG)  0.0908
52. ACATGTCCTTGGGTTCTAACCTGTTGCCT (site ACATGTCCTAA)  0.0846
53. ACCGCGACTTGGGTTCTAACCTGTTGCCT (site ACCGAGACTAG)  0.0792
54. ACCAGCCCTTGGGTTCTAACCTGTTGCTG (site TGATATTCTAG)  0.0743
55. ACCCTGTCTTGGGTTCTAACCTGTTGCCG (site ACCCCGTCTAG)  0.0728
56. ACCAGTCCTTGGGTTCTAACCTGTTGCTA (site ACCAGTCCTCA)  0.065
57. ACCCTTACTTGGGTTCTAACCTGTTGCCT (site AACCTTACTAG)  0.0611
58. ACATTAGCTTGGGTTCTAACCTGTTGCTG (site ACACTAGCTCA)  0.0561
59. ACCACGCCTTGGGTTCTAACCTGTTGCCT (site ATCACGCCTAG)  0.0537
60. ACAGGTTCTTGGGTTCTAACCTGTTGCCT (site AAAGGTTCTAG)  0.0508
61. ACCCAATCTTGGGTTCTAACCTGTTGCAC (site TAGGCTACTTG)  0.0478
62. ACATCTACTTGGGTTCTAACCTGTTGCTA (site ACTTCTACTTA)  0.0475
63. ACCGAGACTTGGGTTCTAACCTGTTGCCT (site ACCGTGACTAG)  0.0449
64. ACAGGTTCTTGGGTTCTAACCTGTTGCCT (site ATAGGTTCTAG)  0.0396
65. ACCCCGTCTTGGGTTCTAACCTGTTGCCT (site ACCCTGTCTCG)  0.0376
66. ACCGAGACTTGGGTTCTAACCTGTTGCCT (site ACCGGGACTAG)  0.0279
67. ACATGTGCTTGGGTTCTAACCTGTTGCCT (site ACAGGTGCTAG)  0.0246
68. ACATGTCCTTGGGTTCTAACCTGTTGCTT (site ACATGTCCTAC)  0.0155
69. ACATCAACTTGGGTTCTAACCTGTTGCCT (site ACCTCAACTAG)  0.0149
70. ACATGTCCTTGGGTTCTAACCTGTTGCCT (site ACATGTCCTAC)  0.0127
71. ACATGTCCTTGGGTTCTAACCTGTTGCCT (site ACATGTCCTAT)  0.00753
72. ACCCTTACTTGGGTTCTAACCTGTTGCCT (site AGCCTTACTAG)  0.00699
73. ACATTGTCTTGGGTTCTAACCTGTTGCGG (site ACAGTGTCTCC)  0.00595
